{
  "source": "patent US9580398B2",
  "about": "“Compounds, compositions, and methods for modulating ferroptosis and treating excitotoxic disorders” (The Trustees of Columbia University in the City of New York, priority 2012, dated 2017)",
  "key": {"[1]": {"test_system": "ERK phosphorylation in HT-1080 cells", "test": "Western blotting of ERK phosphorylation", "format": "cell-based, human", "protocol": "Cells were trypsinized, pelleted, and washed once in PBS. Cells were lysed for 20 minutes in buffer containing: 50 mM HEPES pH 7.4, 40 mM NaCl, 2 mM EDTA, 0.5% Triton X-100, 1.5 mM sodium orthovanadate, 50 mM NaF, 10 mM sodium pyrophosphate, 10 mM sodium β-glycerophosphate, and protease inhibitor tablet (Roche, Nutley, N.J.). Unlysed cells and debris were pelleted for 10 minutes at 10,000 rpm in a benchtop microcentrifuge at 4° C., and the supernatant was removed and mixed with 5×SDS loading buffer. Samples were separated by SDS-polyacrylamide gel electrophoresis. Western transfer was performed using the iBlot system (Invitrogen). Membrane was blocked for 1 hour in Licor Odyssey Blocking Buffer (LI-COR) and incubated in primary antibody overnight at 4° C. Following three 5-minute washes in Tris-buffered saline (pH 7.4) with 1% Tween-20 (TBS-T), membrane was incubated with secondary antibodies for 45 minutes in the dark. The membrane was washed again in TBST for three 5-minute washes with protection from light and scanned using the Odyssey Imaging System (LI-COR). Antibodies used were as follows: rabbit anti-phospho p42/44 MAPK (Cell Signaling Technology, #9101) and rabbit anti-p42/44 MAPK (Cell Signaling Technology, #9102). The secondary antibody was IR dye 800CW goat anti-rabbit IgG (LI-COR)."}, "[2]": {"test_system": "erastin (10 μM)-treated HT-1080 cells", "test": "Inhibition of death in erastin (10 μM)-treated HT-1080 cells, viability by Alamar Blue", "format": "cell-based, human", "conditions": "inhibition of death in erastin (10 μM)-treated HT-1080 cells; Alamar Blue; from dose response curves", "protocol": "(§1) Cell viability was typically assessed in 384-well format by Alamar Blue (Invitrogen) fluorescence (ex/em 530/590) measured on a Victor3 platereader (Perkin Elmer, Waltham, Mass.). In some experiments, Trypan Blue dye exclusion counting was performed using an automated cell counter (ViCell, Beckman-Coulter Inc., Brea, Calif.). Cell viability in test conditions is reported as a percentage relative to the negative control treatment.\nFlow cytometry data was analyzed using FloJo (9.3.2, Tree Star, Inc., Ashland, Oreg.). Chemical structures were drawn using ChemDraw Ultra (Cambridgesoft, Cambridge, Mass.). Computational determination of log P (Slog P function) was performed using MOE 2010.10 (Chemical Computing Group, Montreal, […].). Viability data was analyzed using Excel (Microsoft Corp., […].). Summary data and heatmaps were generated using R. Dose-response curves were computed by 4-parameter logistic regression in Prism 5.0c (GraphPad Software). Images were manipulated using Photoshop CS4 and Illustrator CS4 (Adobe, San Jose, Calif.).\nThe ability of various compounds disclosed herein to inhibit death in erastin (10 μM)-treated HT-1080 cells were tested. Cell viability was assessed by Alamar Blue. EC50 values (nM) were computed from dose response curves."}, "HT-1080 cells": {"test_system": "HT-1080 cells", "test": "HT-1080 cell proliferation (Vi-Cell)", "format": "cell-based, human", "conditions": "over 48 hours", "protocol": "as §1"}, "[3]": {"test_system": "ROS production in HT-1080 cells", "test": "Analysis of reactive oxygen species production by flow cytometry (H2DCFDA, C11-BODIPY, MitoSOX)", "format": "cell-based, human", "conditions": "erastin 10 μM; HT-1080 cells; H2DCFDA, C11-BODIPY", "procedure": "The day before the experiment, 200,000 cells/well were seeded in 6-well dishes (Corning Inc., Corning, N.Y.). […] Data was collected from the FL1 (H2DCFDA, C11-BODIPY) or FL2 channel (MitoSOX). A minimum of 10,000 cells were analyzed per condition."}, "[4]": {"test_system": "rat organotypic hippocampal slice culture (OHSC)", "test": "Glutamate-induced excitotoxic cell death in organotypic hippocampal slice cultures (PI uptake)", "format": "cell-based", "conditions": "5 mM L-glutamate 3 hours; 24 hours after; DG, CA1, CA3; Fer-1 2 μM, CPX 5 μM, MK-801 10 μM", "protocol": "OHSCs were cultured as previously described (Morrison et al., 2002) with approval from Columbia University's Institutional Animal Care and Use Committee (IACUC). Briefly, Sprague Dawley rat pups (P8-P10) were rapidly decapitated, and the hippocampus placed in ice-cold Gey's balanced salt solution (Sigma). 400 μm thick sections were cut using a Mcllwain tissue chopper and immediately plated on Millicell cell culture inserts (Millipore, Billerica, Mass.) in Neurobasal (Invitrogen) media supplemented with B27 (1×, Invitrogen), GlutaMAX (1 mM, Invitrogen), and D-glucose (4.5 mg/mL, Sigma) at 37° C. and 5% CO2. After 2 days in vitro (DIV), the media was changed to medium containing serum comprised of 50% DMEM (Sigma), 25% heat-inactivated horse serum (Sigma), 25% Hank's balanced salt solution (Sigma), GlutaMAX (1 mM, Invitrogen), and D-glucose (4.5 mg/mL, Sigma). Medium was changed every 2-3 days.\nAfter 10-14 DIV, OBSCs were exposed to an excitotoxic injury consisting of a 3 hour exposure to 5 mM L-glutamate in SFM (Morrison et al., 2002). Only healthy OHSCs defined as those with less than 5% cell death in all regions of the hippocampus (DG, CA3, CA1) pre-injury were used for experiments. After the 3 hour exposure, the cultures were placed in fresh serum free media (SFM) containing 75% DMEM, 25% Hank's balanced salt solution, GlutaMAX (1 mM), D-glucose (4.5 mg/mL) until cell death was quantified at 24 hours. If drugs were added, they were added at the same time as glutamate.\nQuantification of cell death has been described previously (Cater et al., 2007; Morrison et al., 2002). Brightfield images of the hippocampal cultures were taken before injury for identification of regions of interest (ROI) including the dentate gyrus (DG), CA3 and CA1. Propidium iodide (PI, Invitrogen) was used as a fluorescent signal for cell death, and images were taken before the induction of injury and 24 hours following injury. […] Percentage cell death was expressed as the number of pixels in the ROI above a threshold in the PI fluorescent image divided by the total number of pixels in the ROI."}},
  "data": [
    {"compound": "CCOC(=O)c1ccc(NC2CCCCC2)c(N)c1", "note": "[Fer-1, ferrostatin-1]", "values": [
      {"measurement": "ERK phosphorylation", "setting": "[1]", "result": "did not inhibit ERK phosphorylation"},
      {"measurement": "EC50", "setting": "[2]", "result": 95, "unit": "nM"},
      {"measurement": "HT-1080 cell proliferation", "setting": "HT-1080 cells", "result": "did not inhibit ERK phosphorylation or arrest the proliferation of HT-1080 cells"},
      {"measurement": "effect on erastin-induced ROS accumulation", "setting": "[3]", "result": "prevent erastin-induced accumulation of cytosolic and lipid ROS"},
      {"measurement": "glutamate-induced cell death (PI uptake)", "setting": "[4]", "result": "attenuated significantly and to an almost identical extent"}
    ]}
  ]
}
